# Source: article PMC9503459, “Antifungal Activity, Structural Stability, and Immunomodulatory Effects on Human Immune Cells of Defensin from the Lentil Lens culinaris” (Membranes, 2022)
# No end group written: not given here.
# Columns and labels:
# [1] = system: phytopathogenic filamentous fungi including Aspergillus niger; conditions: some, but not all, tested fungi including Aspergillus niger; cited from earlier work
# THP-1 cells = assay: Resazurin-based cytotoxicity assay, THP-1; format: cell-based, human; conditions: 0.2 to 50 μM, 24 h
# Protocol: The cytotoxic properties of Lc-def and melittin as a control were investigated also by resazurin-based cell cytotoxicity assay. PBMCs and THP-1 cells were seeded in 96-well plates at 2 × 10^6 and 1 × 10^6 cells per well, respectively, in RPMI-1640 supplemented with 10% FBS, and kept in CO2-incubator. After 24 h serial two-fold dilutions of compounds in culture medium were then added to final concentrations from 0.2 to 50 μM. After 24 h of incubation with the peptides, resazurin (Sigma) was added at a final concentration of 0.7 mM, and the plates were incubated overnight (16 h). Fluorescent resorufin was registered using 535/595 filter at PlateReader AF2200 (Eppendorf, Hamburg, Germany). Untreated corresponding cells were used as negative controls. The cell viability was calculated as: cell viability (%) = (Fsample/Fcontrol) × 100%. The experiment was carried out twice in triplicate.
# [2] = system: proteolytic enzymes of Candida albicans; assay: Influence of defensins on degradation of proteins by C. albicans lysate; format: biochemical; conditions: SDS-PAGE
# Protocol: (§1) For study of Lc-def sensitivity to the clinical isolate of C. albicans, lysates of yeast cells in different concentration and pH were used basically as previously described for rhesus macaque θ-defensin 1 [22]. Cells were inoculated onto modified YPD medium and grown at 37 ℃ for 48 h before reaching the stationary phase of growth. Cells were harvested by centrifugation, washed two times in sterile phosphate buffered saline (PBS), pH 7.2, or sterile 40 mM sodium acetate, pH 4.0, and resuspended in the corresponding buffer to final concentrations of 1 × 10^9 cells/mL or 1 × 10^3 cells/mL. Two freeze-thaw cycles in liquid nitrogen were used for cell disruption, and supernatants were collected following centrifugation. Supernatants (12.5 μL) were mixed with water solutions (37.5 μL) of Lc-def, α-casein, Psd1, or LL-37 in concentration of 0.67 mg/mL and incubated at 37 ℃ for 72 or 24 h in the case of high or low cell concentration, respectively. To study the possible influence of Lc-def and Psd1 on the degradation process, supernatants (12.5 μL) were mixed with both α-casein or LL-37 in concentration of 1 mg/mL (25 μL) and Lc-def or Psd1 in concentration of 2 mg/mL (12.5 μL). As negative controls, α-casein and peptides were mixed with buffers as well as supernatants were mixed with water without the proteins. The samples were mixed with sample buffer without β-mercaptoethanol (BME), heated at 100 ℃ for 2 min, and analyzed by sodium dodecyl sulfate polyacrylamide gel electrophoresis (SDS-PAGE). Some independent experiments were performed in each case.
# [3] = system: clinical isolate of C. glabrata (252/2); assay: Antifungal microdilution assay, C. glabrata; format: cell-based, Candida glabrata; conditions: 24 h; for inhibition of the growth: C. glabrata
# Protocol: The clinical isolates of Candida albicans (v47a3), C. krusei (225/2) and C. glabrata (252/2) were collected from patients with human immunodeficiency virus (HIV) infection and provided by G.N. Gabrichevsky Research Institute for Epidemiology and Microbiology (Moscow, Russia). Strains stocks were kept at −70 ℃ in 10% nonfat milk with 10% glycerol.
# Antifungal susceptibility tests were performed by the microdilution method using 96-well microplates. Yeast cells in stock were inoculated onto modified YPD (yeast extract 5 g/L, peptone 10 g/L, glucose 10 g/L) agar plates, and incubated for 24 h at 37 ℃. After replating, cells were cultured in modified YPD broth at 37 ℃ to optical density 1.0 at 540 nm. Further, yeast cells in modified YPD broth at concentration of 5 × 10^4 cells/mL were mixed with equal volumes of serial two-fold dilutions of the peptide in water which started at the highest peptide concentration of 200 µM. Final peptide concentrations in the wells were 100, 50, 25, 12.5, 6.25, 3.125, and 1.56 μM. Controls without defensin were also tested. Plates were incubated at 30 ℃ during 24 h. Yeast growth was estimated using inverted microscope as well as by measuring the optical density at 540 nm. Percentage of growth inhibition was defined as: growth inhibition (%) = ((Acontrol − Asample)/Acontrol) × 100%. All of the experiments were performed twice in triplicate. The t-test was performed to study the statistical difference (p-value) between the means of controls and samples with different peptide concentrations. The experiment with lentil Lens culinaris lipid transfer protein Lc-LTP2 was carried out for comparison.
# [4] = system: proteolytic enzymes of Candida albicans; assay: Sensitivity to proteolytic enzymes of Candida albicans (cell lysate, SDS-PAGE); format: in vitro ADME; conditions: C. albicans lysate 10^9 cells/mL, up to 72 h, SDS-PAGE
# Protocol: as §1
# [5] = C. albicans lysate 10^3 cells/mL, pH 7.2, up to 24 h
substance,measurement,setting,value
"Lc-def: defensin from lentil Lens culinaris seeds (UniProt:B3F051), recombinant, overexpressed in Escherichia coli (KTCENLSDSFKGPCIPDGNCNKHCKEKEHLLSGRCRDDFRCWCTRNC; disulfide (positions not given here); ends not checked; also: disulfide bonds present, pairing not given here; UniProt B3F051 28-74, looked up)",activity against phytopathogenic filamentous fungi,[1],active
same,cytotoxic activity,THP-1 cells,did not show any cytotoxic activity
same,influence on LL-37 degradation,[2]; [5],did not decrease LL-37 degradation
same,influence on the rate of α-casein degradation,[2]; [5],decreased the rate of α-casein degradation
same,influence on degradation of the major protein of C. albicans,[2]; C. albicans lysate 10^9 cells/mL,decrease in degradation
same,IC50,"[3]; C. glabrata clinical isolate, microdilution, modified YPD, 30 °C, OD540, twice in triplicate, read-out: concentration causing 50% growth inhibition",25 to 50 µM
same,inhibition of the growth,[3]; 50 μM peptide,~90%
same,inhibition of the growth,[3]; 100 μM peptide,< 100%
same,stability to proteolysis by yeast,"[4]; 40 mM sodium acetate pH 4.0, 37 °C",stable
same,stability to proteolysis by yeast,"[4]; PBS pH 7.2, 37 °C, densitometry, immunoblotting",stable
